The values that follow come from patent US20090042912A1, “DIPHENYLIMIDAZOLYL COMPOUNDS AS INHIBITORS OF beta-SECRETASE” (Wyeth, priority 2004, published 2009).

Read-outs that look alike come from different tables or passages of the source.

The target of one series is human BACE1 (Homo sapiens, UniProt P56817). Nature of the series: Fluorescent kinetic assay, inhibition of BACE1 (WABC-6 peptide substrate). It is filed as biochemical. On the procedure: Evaluation of the Enzyme Activity of Test Compounds and the Inhibition of hBACE1, MuBACE1 and hBACE2 by Test Compounds
human BACE1, sequence (P56817 46-501): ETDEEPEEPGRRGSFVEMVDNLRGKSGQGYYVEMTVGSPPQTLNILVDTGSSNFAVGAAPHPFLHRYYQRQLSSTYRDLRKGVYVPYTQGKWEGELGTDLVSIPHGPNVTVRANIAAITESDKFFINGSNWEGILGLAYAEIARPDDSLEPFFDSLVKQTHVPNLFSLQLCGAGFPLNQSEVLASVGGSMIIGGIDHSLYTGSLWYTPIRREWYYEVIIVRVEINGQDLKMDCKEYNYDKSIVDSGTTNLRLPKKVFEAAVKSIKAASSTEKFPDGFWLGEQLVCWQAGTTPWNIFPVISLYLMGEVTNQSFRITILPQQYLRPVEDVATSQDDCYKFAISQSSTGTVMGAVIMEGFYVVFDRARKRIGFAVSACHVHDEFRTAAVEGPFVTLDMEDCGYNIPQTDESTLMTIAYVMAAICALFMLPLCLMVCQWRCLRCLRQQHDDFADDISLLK
The concentration is determined by absorbance at 354 nm using an extinction coefficient ε of 18172 M^−1cm^−1, The substrate stock is stored in small aliquots at −80° C. [Substrate Stock]=ABS^354 nm*10^6/18172 ([…])
Dilution and mixing steps: total reaction volume: 100 μL • 1. 2× inhibitor dilutions in buffer A (66.7 mM Na-Acetate, pH 4.5, 0.0667% CHAPS) are prepared, • 2. 4× enzyme dilution in buffer A (66.7 mM Na-Acetate, pH 4.5, 0.0667% CHAPS) are prepared, • 3. 100 μM substrate dilution in 1× PBS is prepared, • 4. 50 μL 2× Inhibitor and 25 μL 100 μM substrate are added to each well of 96-well plate (from DYNEX Technologies, VWR #: 11311-046), the immediately 25 μL 4× enzyme are added to the inhibitor and substrate mixer, the fluorescence readings are initiated.
Readings at λex 320 nm and λem 420 nm are taken every 40-sec for 30 min at room temperature to determine the linear slope for substrate cleavage rate (vi).

Another series deals with T1, human BACE2 (Homo sapiens, UniProt Q9Y5Z0).
T1 sequence (Q9Y5Z0 63-518): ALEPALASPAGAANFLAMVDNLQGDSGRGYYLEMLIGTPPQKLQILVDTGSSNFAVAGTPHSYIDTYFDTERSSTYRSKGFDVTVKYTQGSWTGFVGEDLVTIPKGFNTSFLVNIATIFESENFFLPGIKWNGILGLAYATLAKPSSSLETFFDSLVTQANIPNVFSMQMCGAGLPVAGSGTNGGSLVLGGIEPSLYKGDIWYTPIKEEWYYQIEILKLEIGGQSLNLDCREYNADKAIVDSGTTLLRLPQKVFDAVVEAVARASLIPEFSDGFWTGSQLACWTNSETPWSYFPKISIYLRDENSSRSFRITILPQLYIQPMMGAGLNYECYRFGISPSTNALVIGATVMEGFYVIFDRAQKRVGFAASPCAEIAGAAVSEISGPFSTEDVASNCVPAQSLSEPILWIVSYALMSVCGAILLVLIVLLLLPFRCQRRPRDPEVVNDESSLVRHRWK
Description: Fluorescent kinetic assay for human recombinant BACE 2 (WABC-6 peptide substrate). The class given is biochemical. As to conditions: for IC50: 1.5 nM enzyme, 25 μM substrate, pH 4.5, room temperature; for inhibition at 25 µM: read-out: BACE2. % inhibition. As for the experimental part:
Fluorescent Kinetic Assay for Human Recombinant BACE 2
This assay is used to provide kinetic and selectivity parameters for the analyses of the tested compounds.
Temperature: room temperature.
Dilution and Mixing Steps: Total Reaction Volume.: 100 μL • 1.
Readings at λex 320 nm, λem 420 nm are taken every 40-sec for 30 min at room temperature and to determine the linear slope for substrate cleavage rate (vi).

Where [1] appears, read: 10 nM enzyme, 25 μM substrate, pH 4.5, room temperature, read-out: IC50 (μM) BACE1.

Regarding `NC1=NC(c2ccc(OC(F)F)cc2)(c2cccc(-c3cccnc3F)c2)C2=NCC3(CCC3)CN12` (stereo not shown) [Example 47, 8′-[4-(difluoromethoxy)phenyl]-8′-[3-(2-fluoropyridin-3-yl)phenyl]-2′,8′-dihydrospiro[cyclobutane-1,3′-imidazo[1,5-a]pyrimidin]-6′-amine], the melting point (as a rule, the temperature of the solid-liquid transition) lay in the range of 220 to 226 °C. Also, the IC50 – broadly, the point on the concentration scale where inhibition reaches its midpoint – on human BACE1 (setting [1]) came out at 0.01 µM. Besides, the concentration for half-maximal inhibition (IC50) on human BACE2 amounted to 1.15 µM. As to `NC1=N[C@](c2ccc(OC(F)(F)F)cc2)(c2cccc(-c3cnccc3F)c2)C2=NCCCN12` [Example 33B, (8R)-8-[3-(4-fluoropyridin-3-yl)phenyl]-8-[4-(trifluoromethoxy)phenyl]-2,3,4,8-tetrahydroimidazo[1,5-a]pyrimidin-6-amine], the inhibition (commonly the percentage by which the read-out fell short of the control) at 5 µM against human BACE1 was 43%. Also, the inhibition at 25 µM at human BACE2 (at 25 μM) came out at 25%. Take `N#CNC1=NC(c2ccc(OC(F)(F)F)cc2)(c2cccc(-c3cncnc3)c2)C2=NCCCN12` (stereo not shown) [Example 29, 8-(3-Pyrimidin-5-yl-phenyl)-8-(4-trifluoromethoxy-phenyl)-2,3,4,8-tetrahydro-imidazo[1,5-a]pyrimidin-6-yl-cyanamide]: the melting point lay within 227 to 231 °C. On to `NC1=N[C@](c2ccc(OC(F)(F)F)cc2)(c2cccc(-c3cncnc3)c2)C2=NCCCN12` (single isomer, unassigned) [Example 31A], for which, at human BACE2, the IC50 is 10.4 µM. On to `NC1=NC(c2ccc(OC(F)(F)F)cc2)(c2cccc(-c3cncnc3)c2)C2=NCCCN12` (stereo not shown) [Example 16, 8-(3-pyrimidin-5-ylphenyl)-8-[4-(trifluoromethoxy)phenyl]-2,3,4,8-tetrahydroimidazo[1,5-a]pyrimidin-6-amine], for which the melting point was 214 to 218 °C. For the same compound, the inhibition at 25 µM at human BACE2 amounted to 49%.

With `NC1=NC(c2ccc(OC(F)(F)F)cc2)(c2cccc(-c3cccnc3F)c2)C2=NCCCCN12` (stereo not shown) [Example 36, 9-[3-(2-Fluoro-pyridin-3-yl)-phenyl]-9-(4-trifluoromethoxy-phenyl)-2,4,5,9-tetrahydro-3H-imidazo[1,5-a][1,3]diazepin-7-ylamine], the IC50 at human BACE1 turned out to be 0.071 µM; on human BACE2, 7.32 µM. Consider `NC1=N[C@@](c2ccc(OC(F)(F)F)cc2)(c2cccc(-c3cnccc3F)c2)C2=NCCCN12` [Example 33A, (8S)-8-[3-(4-fluoropyridin-3-yl)phenyl]-8-[4-(trifluoromethoxy)-phenyl]-2,3,4,8-tetrahydroimidazo[1,5-a]pyrimidin-6-amine], for which the figures for the IC50 on human BACE1 (setting [1]) and on human BACE2 were 0.05 µM and 4 µM, respectively. For the compound `NC1=N[C@](c2ccc(OC(F)(F)F)cc2)(c2cccc(-c3cccnc3F)c2)C2=NCCCN12` (single isomer, unassigned) [Example 30A], on human BACE2 (at 25 μM), the inhibition at 25 µM was found to be 35%. Regarding `NC1=N[C@@](c2ccc(OC(F)F)cc2)(c2cccc(-c3cccnc3F)c2)C2=NCCCN12` [Example 45B, (8S)-8-(4-Difluoromethoxy-phenyl)-8-[3-(2-fluoro-pyridin-3-yl)-phenyl]-2,3,4,8-tetrahydro-imidazo[1,5-a]pyrimidin-6-ylamine], the inhibition at […] at human BACE1 (at 2.5 uM) was 49%. On human BACE2 (at 25 μM), the inhibition at 25 µM is 60%. For the compound `NC1=NC(c2ccc(OC(F)(F)F)cc2)(c2cccc(-c3ccc[n+]([O-])c3F)c2)C2=NCCCN12` (stereo not shown) [Example 34, 8-[3-(2-Fluoro 1-oxy-pyridin-3-yl)-phenyl]-8-(4-trifluoromethoxy-phenyl)-2,3,4,8-tetrahydro-imidazo[1,5-a]pyrimidin-6-ylamine], the inhibition at 25 µM on human BACE2 (at 25 μM) turned out to be 25%. In turn, `NC1=NC(c2cccc(-c3cccnc3F)c2)(c2ccc3c(c2)OCO3)C2=NCCCN12` (stereo not shown) [Example 40, 8-Benzo[1,3]dioxol-5-yl-8-[3-(2-fluoro-pyridin-3-yl)-phenyl]-2,3,4,8-tetrahydro-imidazo[1,5-a]pyrimidin-6-ylamine] returned a melting point of 106 to 119 °C. Moreover, on human BACE1 (read-out: IC50 (μM) BACE1.), the IC50 was found to be 0.16 µM. For the compound `NC1=NC(c2ccc(OC(F)(F)F)cc2)(c2cccc(-c3cncnc3)c2)c2nccn21` (stereo not shown) [Example 5], the IC50 at human BACE1 (setting [1]) amounted to 0.23 µM. For the same compound, the inhibition at 25 µM at human BACE2 (at 25 μM) was found to be 50%. On to `NC1=NC(c2ccc(OC(F)(F)F)cc2)(c2cccc(-c3cccnc3F)c2)C2=NCCCCCN12` (stereo not shown) [Example 37, 1-[3-(2-Fluoro-pyridin-3-yl)-phenyl]-1-(4-trifluoromethoxy-phenyl)-1,4,5,6,7,8-hexahydro-2,3a,9-triaza-cyclopentacycloocten-3-ylamine], for which the IC50 on human BACE2 came to 10.8 µM. For `CC1(C)CN2C(N)=NC(c3ccc(OC(F)(F)F)cc3)(c3cccc(-c4cccnc4F)c3)C2=N1` (stereo not shown) [Example 42, 7-[3-(2-Fluoropyridin-3-yl)phenyl]-2,2-dimethyl-7-(4-trifluoromethoxyphenyl)-2,7-dihydro-3H-imidazo[1,5-a]imidazol-5-ylamine], at human BACE1 (setting [1]), the IC50 is 0.15 µM. The inhibition at 25 µM on human BACE2 (at 25 μM) is 52%. Turning to `NC1=N[C@@](c2ccc(OC(F)(F)F)cc2)(c2cccc(-c3cccnc3F)c2)C2=NCCCN12` (single isomer, unassigned) [Example 30B], the IC50 at human BACE2 came to 3.79 µM.

For `NC1=N[C@](c2ccc(OC(F)F)cc2)(c2cccc(-c3cccnc3F)c2)C2=NCCCN12` [Example 45A, (8R)-8-(4-Difluoromethoxy-phenyl)-8-[3-(2-fluoro-pyridin-3-yl)-phenyl]-2,3,4,8-tetrahydro-imidazo[1,5-a]pyrimidin-6-ylamine], the IC50 was 0.01 µM on human BACE1 (setting [1]) and 0.7 µM at human BACE2.

On to `NC1=NC(c2ccc(OC(F)(F)F)cc2)(c2cccc(-c3cccnc3F)c2)C2=NCCCN12` (stereo not shown) [Example 17, 8-[3-(2-fluoropyridin-3-yl)phenyl]-8-[4-(trifluoromethoxy)phenyl]-2,3,4,8-tetrahydroimidazo[1,5-a]pyrimidin-6-amine], for which the melting point fell in the range of 105 to 115 °C. At human BACE2, the IC50 amounted to 11.4 µM.

Compound `COc1ccc(C2(c3cccc(-c4cncnc4)c3)N=C(N)N3CCCN=C32)cc1` (stereo not shown) [Example 22, 8-(4-methoxyphenyl)-8-(3-pyrimidin-5-ylphenyl)-2,3,4,8-tetrahydroimidazo[1,5-a]pyrimidin-6-amine] displayed a melting point of 136 to 140 °C. At human BACE2 (at 25 μM), the inhibition at 25 µM is 60%. Turning to `NC1=N[C@@](c2ccc(OC(F)(F)F)cc2)(c2cccc(-c3cncc(Cl)c3)c2)C2=NCCCN12` [Example 32A, (8S)-8-[3-(5-Chloropyridin-3-yl)phenyl]-8-[4-(trifluoromethoxy)-phenyl]-2,3,4,8-tetrahydroimidazo[1,5-a]pyrimidin-6-amine], the IC50 on human BACE1 (setting [1]) stood at 0.029 µM; at human BACE2, 0.272 µM.

On to `NC1=N[C@@](c2ccc(OC(F)(F)F)cc2)(c2cccc(-c3cncnc3)c2)C2=NCCCN12` (single isomer, unassigned) [Example 31B], for which the inhibition at 25 µM at human BACE2 worked out at 28%. Consider `NC1=NC(c2ccc(OC(F)(F)F)cc2)(c2cccc(-c3cnccc3F)c2)C2=NCCCN12` (stereo not shown) [Example 27, 8-[3-(4-fluoropyridin-3-yl)phenyl]-8-[4-(trifluoromethoxy)phenyl]-2,3,4,8-tetrahydroimidazo[1,5-a]pyrimidin-6-amine], for which the melting point was 83 to 97 °C. For the compound `NC1=N[C@](c2ccc(OC(F)(F)F)cc2)(c2cccc(-c3cncc(Cl)c3)c2)C2=NCCCN12` [Example 32B, (8R)-8-[3-(5-Chloropyridin-3-yl)phenyl]-8-[4-(trifluoromethoxy)-phenyl]-2,3,4,8-tetrahydroimidazo[1,5-a]pyrimidin-6-amine], the inhibition at 5 µM against human BACE1 was 19%. The inhibition at 25 µM on human BACE2 (at 25 μM) came out at 34%.
